Values after ≈ are worked out from the molar mass of the structure shown. Non-standard residues stand in square brackets, D forms with d. Residues, ends and D or L forms follow the SMILES beside them. ξ: configuration not given here. *: point of attachment. 1Naphthoyl = O=C(c1cccc2ccccc12)*; Palmitoyl = CCCCCCCCCCCCCCCC(=O)*; Myristoyl = CCCCCCCCCCCCCC(=O)*; Lauroyl = CCCCCCCCCCCC(=O)*; Decanoyl = CCCCCCCCCC(=O)*; ξAhp(2) = CCCCCC(N)C(=O)O
Tests used:
E. coli 25922 = assay type: cell-based, Escherichia coli
Description: (§1) The MIC values of the nano‐short peptides were determined according to standard protocols.^[ [63] ^] Bacterial strains were revived from cryopreservation and cultured in Mueller–Hinton broth (MHB) to logarithmic growth phase, then diluted to a final density of 0.5–1 × 10⁶ CFU mL^−1. Serial dilutions of the nano‐short peptides were prepared in 0.2% bovine serum albumin (BSA) using a 96‐well plate format. Equal volumes of peptide solutions and bacterial suspensions were combined and incubated at 37 °C for 20–22 h. Bacterial growth was assessed by measuring absorbance at 492 nm, with MHB alone (negative control) and untreated bacterial suspension (positive control) included for reference.

E. coli UB1005 = assay type: cell-based, Escherichia coli
Description: as §1

E. coli 078 = assay type: cell-based, Escherichia coli
Description: as §1

P. aeruginosa PAO1 = assay type: cell-based, Pseudomonas aeruginosa
Description: as §1

P. aeruginosa 27853 = assay type: cell-based, Pseudomonas aeruginosa
Description: as §1

S. epidermidis 12228 = assay type: cell-based, Staphylococcus epidermidis
Description: as §1

E. faecalis 29212 = assay type: cell-based, Enterococcus faecalis
Description: as §1

MRSA 43300 = assay type: cell-based, Methicillin-Resistant Staphylococcus aureus
Description: as §1

S. typhimurium 7731 = assay type: cell-based, Salmonella typhimurium
Description: as §1

S. typhimurium 14028 = assay type: cell-based, Salmonella typhimurium
Description: as §1

S. pullorum C7913 = assay type: cell-based
Description: as §1

S. aureus 25923 = assay type: cell-based, Staphylococcus aureus
Description: as §1

S. aureus 29213 = assay type: cell-based, Staphylococcus aureus
Description: as §1

| SMILES | MIC, E. coli 25922 (E. coli 25922) [µM] | MIC, E. coli UB1005 (E. coli UB1005) [µM] | MIC, E. coli 078 (E. coli 078) [µM] | MIC, P. aeruginosa PAO1 (P. aeruginosa PAO1) [µM] | MIC, P. aeruginosa 27853 (P. aeruginosa 27853) [µM] | MIC, S. epidermidis 12228 (S. epidermidis 12228) [µM] | MIC, E. faecalis 29212 (E. faecalis 29212) [µM] | MIC, MRSA 43300 (MRSA 43300) [µM] | MIC, S. typhimurium 7731 (S. typhimurium 7731) [µM] | MIC, S. typhimurium 14028 (S. typhimurium 14028) [µM] | MIC, S. pullorum C7913 (S. pullorum C7913) [µM] | MIC, S. aureus 25923 (S. aureus 25923) [µM] | MIC, S. aureus 29213 (S. aureus 29213) [µM] |
| --- | --- | --- | --- | --- | --- | --- | --- | --- | --- | --- | --- | --- | --- |
| CCCCCC(N)C(=O)NC(CCCCC)C(=O)NC(CCCCC)C(=O)N[C@H](CCCNC(=N)N)C(=O)N[C@@H](CCCNC(=N)N)C(=O)N[C@@H](CCCNC(=N)N)C(=O)N1CCC[C@H]1C(=O)O (stereo partly shown) [Peptide B3] (H-[ξAhp(2)][ξAhp(2)][ξAhp(2)][dR]RRP-OH; N-terminus assumed) | 256 (≈ 247 µg/mL) | 256 (≈ 247 µg/mL) | 256 (≈ 247 µg/mL) | 256 (≈ 247 µg/mL) | 256 (≈ 247 µg/mL) | 256 (≈ 247 µg/mL) | 256 (≈ 247 µg/mL) | 256 (≈ 247 µg/mL) | 256 (≈ 247 µg/mL) | 256 (≈ 247 µg/mL) | 256 (≈ 247 µg/mL) | 256 (≈ 247 µg/mL) | 256 (≈ 247 µg/mL) |
| C[C@H](N)C(=O)N[C@@H](C)C(=O)N[C@@H](C)C(=O)N[C@@H](C)C(=O)N[C@H](CCCNC(=N)N)C(=O)N[C@@H](CCCNC(=N)N)C(=O)N[C@@H](CCCNC(=N)N)C(=O)N1CCC[C@H]1C(=O)O [Peptide A4] (H-AAAA[dR]RRP-OH) | 256 (≈ 222 µg/mL) | 256 (≈ 222 µg/mL) | 256 (≈ 222 µg/mL) | 256 (≈ 222 µg/mL) | 256 (≈ 222 µg/mL) | 256 (≈ 222 µg/mL) | 256 (≈ 222 µg/mL) | 256 (≈ 222 µg/mL) | 256 (≈ 222 µg/mL) | 256 (≈ 222 µg/mL) | 256 (≈ 222 µg/mL) | 256 (≈ 222 µg/mL) | 256 (≈ 222 µg/mL) |
| N=C(N)NCCC[C@H](NC(=O)c1cccc2ccccc12)C(=O)N[C@H](CCCNC(=N)N)C(=O)N[C@@H](CCCNC(=N)N)C(=O)N1CCC[C@H]1C(=O)O [Nap] (1Naphthoyl-R[dR]RP-OH) | 256 (≈ 189 µg/mL) | 256 (≈ 189 µg/mL) | 256 (≈ 189 µg/mL) | 256 (≈ 189 µg/mL) | 256 (≈ 189 µg/mL) | 256 (≈ 189 µg/mL) | 256 (≈ 189 µg/mL) | 256 (≈ 189 µg/mL) | 256 (≈ 189 µg/mL) | 256 (≈ 189 µg/mL) | 256 (≈ 189 µg/mL) | 256 (≈ 189 µg/mL) | 256 (≈ 189 µg/mL) |
| C[C@H](N)C(=O)N[C@@H](C)C(=O)N[C@@H](C)C(=O)N[C@H](CCCNC(=N)N)C(=O)N[C@@H](CCCNC(=N)N)C(=O)N[C@@H](CCCNC(=N)N)C(=O)N1CCC[C@H]1C(=O)O [Peptide A3] (H-AAA[dR]RRP-OH) | 256 (≈ 204 µg/mL) | 256 (≈ 204 µg/mL) | 256 (≈ 204 µg/mL) | 256 (≈ 204 µg/mL) | 256 (≈ 204 µg/mL) | 256 (≈ 204 µg/mL) | 256 (≈ 204 µg/mL) | 256 (≈ 204 µg/mL) | 256 (≈ 204 µg/mL) | 256 (≈ 204 µg/mL) | 256 (≈ 204 µg/mL) | 256 (≈ 204 µg/mL) | 256 (≈ 204 µg/mL) |
| CCCCCCCCCC(=O)N[C@H](CCCNC(=N)N)C(=O)N[C@@H](CCCNC(=N)N)C(=O)N[C@@H](CCCNC(=N)N)C(=O)N1CCC[C@H]1C(=O)O [Peptide C10] (Decanoyl-[dR]RRP-OH) | 256 (≈ 189 µg/mL) | 256 (≈ 189 µg/mL) | 256 (≈ 189 µg/mL) | 256 (≈ 189 µg/mL) | 256 (≈ 189 µg/mL) | 128 (≈ 94.5 µg/mL) | 256 (≈ 189 µg/mL) | 128 (≈ 94.5 µg/mL) | 256 (≈ 189 µg/mL) | 256 (≈ 189 µg/mL) | 256 (≈ 189 µg/mL) | 256 (≈ 189 µg/mL) | 256 (≈ 189 µg/mL) |
| C[C@H](N)C(=O)N[C@@H](C)C(=O)N[C@@H](C)C(=O)N[C@@H](C)C(=O)N[C@@H](C)C(=O)N[C@@H](C)C(=O)N[C@H](CCCNC(=N)N)C(=O)N[C@@H](CCCNC(=N)N)C(=O)N[C@@H](CCCNC(=N)N)C(=O)N1CCC[C@H]1C(=O)O [Peptide A6] (H-AAAAAA[dR]RRP-OH) | 256 (≈ 259 µg/mL) | 256 (≈ 259 µg/mL) | 256 (≈ 259 µg/mL) | 256 (≈ 259 µg/mL) | 256 (≈ 259 µg/mL) | 256 (≈ 259 µg/mL) | 256 (≈ 259 µg/mL) | 256 (≈ 259 µg/mL) | 256 (≈ 259 µg/mL) | 256 (≈ 259 µg/mL) | 256 (≈ 259 µg/mL) | 256 (≈ 259 µg/mL) | 256 (≈ 259 µg/mL) |
| CCCCCCCCCCCCCC(=O)N[C@H](CCCNC(=N)N)C(=O)N[C@@H](CCCNC(=N)N)C(=O)N[C@@H](CCCNC(=N)N)C(=O)N1CCC[C@H]1C(=O)O [Peptide C14] (Myristoyl-[dR]RRP-OH) | 64 (≈ 50.8 µg/mL) | 128 (≈ 102 µg/mL) | 64 (≈ 50.8 µg/mL) | 32 (≈ 25.4 µg/mL) | 64 (≈ 50.8 µg/mL) | 32 (≈ 25.4 µg/mL) | 32 (≈ 25.4 µg/mL) | 16 (≈ 12.7 µg/mL) | 64 (≈ 50.8 µg/mL) | 128 (≈ 102 µg/mL) | 64 (≈ 50.8 µg/mL) | 32 (≈ 25.4 µg/mL) | 32 (≈ 25.4 µg/mL) |
| CCCCCCCCCCCCCCCC(=O)N[C@H](CCCNC(=N)N)C(=O)N[C@@H](CCCNC(=N)N)C(=O)N[C@@H](CCCNC(=N)N)C(=O)N1CCC[C@H]1C(=O)O [Peptide C16] (Palmitoyl-[dR]RRP-OH) |  |  |  | 32 (≈ 26.3 µg/mL) |  | 32 (≈ 26.3 µg/mL) | 32 (≈ 26.3 µg/mL) | 32 (≈ 26.3 µg/mL) |  |  | 256 (≈ 210 µg/mL) | 32 (≈ 26.3 µg/mL) | 32 (≈ 26.3 µg/mL) |
| CCCCCCCCCCCC(=O)N[C@H](CCCNC(=N)N)C(=O)N[C@@H](CCCNC(=N)N)C(=O)N[C@@H](CCCNC(=N)N)C(=O)N1CCC[C@H]1C(=O)O [Peptide C12] (Lauroyl-[dR]RRP-OH) | 128 (≈ 98 µg/mL) | 256 (≈ 196 µg/mL) | 128 (≈ 98 µg/mL) | 64 (≈ 49 µg/mL) | 128 (≈ 98 µg/mL) | 64 (≈ 49 µg/mL) | 64 (≈ 49 µg/mL) | 32 (≈ 24.5 µg/mL) | 128 (≈ 98 µg/mL) | 128 (≈ 98 µg/mL) | 128 (≈ 98 µg/mL) | 64 (≈ 49 µg/mL) | 64 (≈ 49 µg/mL) |
| C[C@H](N)C(=O)N[C@@H](C)C(=O)N[C@@H](C)C(=O)N[C@@H](C)C(=O)N[C@@H](C)C(=O)N[C@H](CCCNC(=N)N)C(=O)N[C@@H](CCCNC(=N)N)C(=O)N[C@@H](CCCNC(=N)N)C(=O)N1CCC[C@H]1C(=O)O [Peptide A5] (H-AAAAA[dR]RRP-OH) | 256 (≈ 240 µg/mL) | 256 (≈ 240 µg/mL) | 256 (≈ 240 µg/mL) | 256 (≈ 240 µg/mL) | 256 (≈ 240 µg/mL) | 256 (≈ 240 µg/mL) | 256 (≈ 240 µg/mL) | 256 (≈ 240 µg/mL) | 256 (≈ 240 µg/mL) | 256 (≈ 240 µg/mL) | 256 (≈ 240 µg/mL) | 256 (≈ 240 µg/mL) | 256 (≈ 240 µg/mL) |

From publication PMC12677699, “Utilizing Proteolytic‐Resistant Nano‐Short Peptide Based on Naphthyl Tail‐Anchored to Combat Bacterial Infections” (Advanced Science, 2025)
